How the values were obtained:
CT26 = test: Antiproliferative activity against mouse CT26 cells assessed as inhibition of cell growth incubated for 48 hrs by MTT assay; format: functional, cell-based; conditions: CT26, 48 h
A549 = test: Antiproliferative activity against human A549 cells assessed as inhibition of cell growth incubated for 48 hrs by MTT assay; format: functional, cell-based; conditions: A549, 48 h
BGC-823 = test: Antiproliferative activity against human BGC-823 cells assessed as inhibition of cell growth incubated for 48 hrs by MTT assay; format: functional, cell-based; conditions: BGC-823, 48 h
MCF7 = test: Antiproliferative activity against human MCF7 cells assessed as inhibition of cell growth incubated for 48 hrs by MTT assay; format: functional, cell-based; conditions: MCF7, 48 h
Bel-7402 = test: Antiproliferative activity against human Bel-7402 cells assessed as inhibition of cell growth incubated for 48 hrs by MTT assay; format: functional, cell-based; conditions: Bel-7402, 48 h
Chorioallantoic membrane = test: Antiangiogenic activity in chicken embryo chorioallantoic membrane assessed as decrease in microvessel density incubated for 48 hrs by microscopic analysis; format: functional, tissue-based; conditions: Gallus gallus
[1] = target: Vascular endothelial growth factor receptor 2 (Mus musculus) (UniProt P35918); test: Inhibition of VEGFR2 autophosphorylation in mouse BEND3 cells incubated for 2 hrs by Western blotting analysis; format: cell-based
Sequence of Vascular endothelial growth factor receptor 2 (Mus musculus) (P35918 whole entry): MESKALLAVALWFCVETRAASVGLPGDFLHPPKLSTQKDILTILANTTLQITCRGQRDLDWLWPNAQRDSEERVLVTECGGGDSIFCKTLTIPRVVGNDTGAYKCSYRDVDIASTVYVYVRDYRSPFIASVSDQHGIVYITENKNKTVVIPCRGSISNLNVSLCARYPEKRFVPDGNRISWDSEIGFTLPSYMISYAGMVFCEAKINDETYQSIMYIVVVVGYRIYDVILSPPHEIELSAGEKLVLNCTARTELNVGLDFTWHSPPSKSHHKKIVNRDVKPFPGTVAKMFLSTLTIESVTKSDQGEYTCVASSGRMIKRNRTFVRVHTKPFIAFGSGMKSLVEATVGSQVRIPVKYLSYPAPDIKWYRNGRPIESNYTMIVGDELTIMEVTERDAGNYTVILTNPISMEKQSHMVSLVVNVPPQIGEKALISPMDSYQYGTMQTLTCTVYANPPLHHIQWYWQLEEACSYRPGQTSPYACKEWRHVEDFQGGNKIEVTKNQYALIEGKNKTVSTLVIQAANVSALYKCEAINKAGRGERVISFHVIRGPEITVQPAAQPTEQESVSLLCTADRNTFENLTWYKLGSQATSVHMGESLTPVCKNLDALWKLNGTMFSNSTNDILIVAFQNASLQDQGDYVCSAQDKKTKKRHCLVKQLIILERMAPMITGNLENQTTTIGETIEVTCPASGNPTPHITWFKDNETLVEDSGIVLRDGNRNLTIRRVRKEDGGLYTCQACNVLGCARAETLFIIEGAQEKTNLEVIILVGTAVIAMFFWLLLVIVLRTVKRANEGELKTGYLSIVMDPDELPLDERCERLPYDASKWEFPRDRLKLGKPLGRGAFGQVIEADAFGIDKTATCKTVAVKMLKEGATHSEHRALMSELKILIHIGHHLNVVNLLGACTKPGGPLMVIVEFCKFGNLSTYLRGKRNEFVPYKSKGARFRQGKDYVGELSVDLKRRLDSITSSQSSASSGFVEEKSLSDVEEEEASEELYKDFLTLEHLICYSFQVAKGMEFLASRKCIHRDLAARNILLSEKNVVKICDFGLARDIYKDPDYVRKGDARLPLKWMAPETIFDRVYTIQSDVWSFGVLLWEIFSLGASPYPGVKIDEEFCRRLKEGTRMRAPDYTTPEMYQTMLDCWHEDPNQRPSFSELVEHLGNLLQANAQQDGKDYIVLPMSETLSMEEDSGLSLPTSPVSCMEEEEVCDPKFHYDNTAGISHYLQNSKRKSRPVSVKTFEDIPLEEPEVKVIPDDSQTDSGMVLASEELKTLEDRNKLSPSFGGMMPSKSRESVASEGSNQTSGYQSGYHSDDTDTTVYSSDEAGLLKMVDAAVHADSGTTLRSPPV

IC50 (CT26) [µM]	IC50 (A549) [µM]	IC50 (BGC-823) [µM]	IC50 (MCF7) [µM]	IC50 (Bel-7402) [µM]	inhibition [1]	Compound	Activity (Chorioallantoic membrane)
4.3	23.5	14.1	12.5	15.9	–	Fc1ccc(Cn2c3ccccc3c3cc4cn(-c5ccccc5)c[n+]4cc32)cc1	–
13.3	14.3	19.2	8.8	16.8	–	COc1ccc(Cn2c3ccccc3c3cc4cn(-c5ccccc5)c[n+]4cc32)cc1	–
16.1	12.2	3.5	9.2	19.2	–	Cn1c2ccccc2c2cc3cn(-c4cc(F)cc(F)c4)c[n+]3cc21	–
7.7	20.9	20.6	11.5	3.5	–	FC(F)(F)c1cccc(-n2cc3cc4c5ccccc5n(Cc5ccccc5)c4c[n+]3c2)c1	–
15.9	21.3	3.4	2.5	13.2	–	c1ccc(Cn2cc3cc4c5ccccc5n(Cc5ccccc5)c4c[n+]3c2)cc1	–
7.3	6.8	4.1	5.5	11.6	–	c1ccc(Cn2c3ccccc3c3cc4cn(-c5ccccc5)c[n+]4cc32)cc1	–
1.3	22.6	12.6	16.9	10.8	–	Clc1cccc(Cn2c3ccccc3c3cc4cn(Cc5ccccc5)c[n+]4cc32)c1	–
17.2	8.5	10.9	1.4	5.5	–	FC(F)(F)c1cccc(-n2cc3cc4c5ccccc5n(Cc5cccc(Cl)c5)c4c[n+]3c2)c1	–
1.1	14.3	8.5	15.6	3.2	–	CCCCn1c2ccccc2c2cc3cn(-c4ccccc4)c[n+]3cc21	–
19.4	7.5	7.7	14.1	16.2	–	CN(C)c1ccc(-n2cc3cc4c5ccccc5n(Cc5ccccc5)c4c[n+]3c2)cc1	–
8.2	21.8	17.6	19.9	10.9	–	Cn1c2ccccc2c2cc3cn(-c4cccc(C(F)(F)F)c4)c[n+]3cc21	–
11.5	20.1	7.3	5.1	22.2	–	COc1ccc(Cn2c3ccccc3c3cc4cn(-c5ccc(N(C)C)cc5)c[n+]4cc32)cc1	–
21.1	12.3	11.9	7.9	8.1	–	CN(C)c1ccc(-n2cc3cc4c5ccccc5n(Cc5cccc(Cl)c5)c4c[n+]3c2)cc1	–

The next lines start with the compound.

Compound	IC50 (CT26) [µM]	IC50 (A549) [µM]	IC50 (BGC-823) [µM]	IC50 (MCF7) [µM]	IC50 (Bel-7402) [µM]	inhibition [1]	Activity (Chorioallantoic membrane)
Clc1cccc(Cn2c3ccccc3c3cc4cn(-c5ccccc5)c[n+]4cc32)c1	5.8	10.8	10.5	10.3	1.8	–	–
CCCCn1c2ccccc2c2cc3cn(-c4ccc5ccccc5c4)c[n+]3cc21	4.9	8.3	14.5	12.7	5.7	–	–
CN(C)CCn1cc2cc3c4ccccc4n(Cc4ccccc4)c3c[n+]2c1	8.9	11.7	2.8	4.6	8.3	–	–
FC(F)(F)c1ccc(-n2cc3cc4c5ccccc5n(Cc5cccc(Cl)c5)c4c[n+]3c2)cc1	6.9	12.1	7.5	4.9	21.5	–	–
CCCCn1c2ccccc2c2cc3cn(-c4ccc(C(F)(F)F)cc4)c[n+]3cc21	9.8	2.4	1.3	12.1	7.8	Dose-dependent-effect	Dose-dependent-effect
FC(F)(F)c1ccc(-n2cc3cc4c5ccccc5n(CCCc5ccccc5)c4c[n+]3c2)cc1	4.8	23.9	17.5	3.3	5.2	–	–
CN(C)c1ccc(-n2cc3cc4c5ccccc5n(C)c4c[n+]3c2)cc1	23.5	15.4	19.1	3.8	22.5	–	–
CN(C)CCn1cc2cc3c4ccccc4n(CCCc4ccccc4)c3c[n+]2c1	3.8	10.6	13.1	1.5	8.4	–	–
FC(F)(F)c1ccc(-n2cc3cc4c5ccccc5n(Cc5ccccc5)c4c[n+]3c2)cc1	15.9	23.2	1.1	9.1	16.3	–	–
Cn1c2ccccc2c2cc3cn(-c4ccccc4)c[n+]3cc21	18.4	7.8	12.5	20.1	18.3	–	–
COc1ccc(Cn2c3ccccc3c3cc4cn(-c5ccc(C(F)(F)F)cc5)c[n+]4cc32)cc1	22.7	9.9	3.5	15.7	4.1	–	–
